The results in this text go back to PubChem BioAssay (NCI).

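1) Cells in 96-well plates. 2) Compound, 48 h, 5 concentrations. 3) Linear interpolation between surrounding doses. 4) Unreached endpoint = highest concentration. TGI is the concentration that stops growth completely.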 A value given as a limit tells only on which side of the number the result lay.

What all share (experiment): NCI-60 cell line screen, 48 h
Assay [1] concerns LOX IMVI melanoma.
The subject of assay [2] is HS 578T breast.
For assay [3], the system named is SF-539 CNS.
Assay [4] concerns RPMI-8226 leukemia.
The test system of assay [5] is U251 CNS.
The subject of assay [6] is UO-31 renal.
Assay [7] deals with SF-268 CNS.
The test system of assay [8] is OVCAR-3 ovarian.
For assay [9], the system named is TK-10 renal.
Assay [10] deals with MALME-3M melanoma.
For assay [11], the system named is RXF 393 renal.
Assay [12] has as its system COLO 205 colon.
Assay [13] has as its system SK-MEL-2 melanoma.
Assay [14] relates to PC-3 prostate.
Assay [15] has as its system HOP-62 NSCLC.
Assay [16] relates to NCI/ADR-RES ovarian.
Assay [17] has as its system MDA-N.
In assay [18] the test system is HOP-92 NSCLC.
Assay [19] relates to NCI-H23 lung.

Regarding `CC(C)=NNc1ncnc2nc[nH]c12`, the TGI in [1] is more than 100 µM; in assay [2], 83.9 µM; in [3], more than 88.9 µM; in assay [4] it was more than 62 µM; in assay [5] it was more than 100 µM; in [6], more than 87.9 µM. Besides, the TGI was more than 100 µM in [7]; 40.1 µM in [8]; more than 100 µM in assay [9]; more than 100 µM in assay [10]; more than 100 µM in assay [11]; 59.5 µM in [12]. In addition, the TGI in assay [13] is more than 67.8 µM; in [14], more than 100 µM; in assay [15], more than 76.7 µM; in assay [16], more than 100 µM; in [17], more than 100 µM; in assay [18] it was more than 93.8 µM. In addition, in assay [19], the TGI was more than 100 µM.
For `Cc1cc2c3c(c1)CCCN3CCC2`, the TGI in assay [1], in assay [2], in assay [3], in [4], in [5] and in assay [6] was more than 10 µM throughout. The TGI in assay [7], in [8], in [9], in [10], in [11] and in assay [12] was more than 10 µM in each case. In addition, the TGI in assay [13], in assay [14], in assay [15], in [16], in [17] and in assay [18] was more than 10 µM in each case. This compound also registered a TGI in assay [19] of more than 10 µM.
Consider `CC(=O)N1c2ccccc2[C@H]2CCc3c([nH]c4ccccc34)[C@H]21`, for which the TGI in [1] came to 31.8 µM; in assay [2] it was 57.7 µM; in assay [3], 26.1 µM; in [4] it was 43.5 µM; in assay [5], 26.5 µM; in assay [6], 67.6 µM. In addition, the TGI in [7] was 52.3 µM; in [8] it was 31.6 µM; in assay [9] it was more than 100 µM; in assay [10], 30.7 µM; in assay [11], 28.4 µM; in assay [12], 27.6 µM. The TGI in [13] was 74.1 µM; in [14] it was more than 100 µM; in assay [15], 28.1 µM; in assay [16], more than 100 µM; in assay [17], 49.3 µM; in assay [18] it was 33.5 µM. This compound also yielded a TGI in assay [19] of 31.2 µM.
Regarding `COc1ccc2c(C(=O)c3c(C)n(CCN4CCOCC4)c4ccccc34)cccc2c1`, the TGI in [1] is 45.4 µM; in assay [2], 40.6 µM; in assay [3] it was more than 100 µM; in [4], 83.6 µM; in assay [5], 52.2 µM; in [6] it was more than 100 µM. For the same compound, the TGI in assay [7] was 55.4 µM; in [8] it was 29.6 µM; in assay [9], more than 100 µM; in assay [10], 80.7 µM; in [11], 91.2 µM; in assay [12], 43.4 µM. Moreover, the TGI was 55.9 µM in assay [13]; 96.6 µM in [14]; more than 100 µM in assay [15]; 55.9 µM in assay [16]; more than 100 µM in assay [17]; more than 100 µM in assay [18]. Moreover, in assay [19], the TGI is more than 100 µM.
For `Cc1cc(/N=C/c2ccc(Cl)cc2)n(-c2ccccc2)n1`, the TGI in [1], in assay [2], in assay [3], in assay [4], in assay [5] and in [6] was more than 100 µM in each case. The TGI was more than 100 µM in assay [7]; more than 100 µM in assay [8]; more than 100 µM in [9]; more than 100 µM in [10]; 77.1 µM in [11]; more than 100 µM in [12]. Besides, the TGI in assay [13], in [14], in assay [15], in [16], in assay [17] and in assay [18] was more than 100 µM in each case. The compound further displayed a TGI in assay [19] of more than 100 µM.
For `COc1cccc(Nc2nc(NS(=O)(=O)c3cc(C)c(Cl)cc3S)n[nH]2)c1`, the TGI in [1], in assay [2], in assay [3], in assay [4], in assay [5] and in assay [6] was more than 100 µM throughout. Also, the TGI in assay [7], in assay [8], in assay [9], in assay [10], in assay [11] and in assay [12] was more than 100 µM in each case. Further, the TGI in assay [13], in [14], in assay [15], in assay [16], in assay [17] and in assay [18] was more than 100 µM each time. The compound also displayed a TGI in assay [19] of more than 100 µM.
On to `COc1cccc(N2C(=O)C3CC(CC(C)(C)C)c4c([nH]c5ccccc45)C3C2=O)c1` (configuration not stated), for which the TGI in assay [1] is more than 10 µM; in assay [2], 9.87 µM; in assay [3] it was 8.42 µM; in [4], more than 10 µM; in assay [5] it was more than 10 µM; in assay [7] it was more than 10 µM. The TGI in [8], in assay [9], in assay [10], in [11], in [12] and in [13] was more than 10 µM each time. Moreover, the TGI in assay [14], in [15], in [16], in assay [17], in [18] and in [19] was more than 10 µM throughout.
